Strand notation (5' to 3'): a small letter for the sugar, then the base; units joined by * are phosphorothioate-linked, units joined directly phosphodiester-linked; [ ] holds rarer units or linkages, { } end groups; capitals alone tell only the bases. m = 2'-O-methyl; f = 2'-fluoro
How the values were obtained:
[1] = test system: SOD1; test: Test Example 2: inhibitory activity of NM031 conjugated siRNA on SOD1 by intrathecal administration to mice; type: in vivo, C57BL/6j mice; conditions: intrathecal, 800 μg per mouse, D9
Description: 6-8 Week-old C57BL/6j mice were randomly grouped into 4 groups by body weight. PBS group was dosed with siRNA-free PBS solution, RX899001 group was dosed with siRNA compound RX899001 without vector conjugation, RZ899001 group was dosed with siRNA RZ899001 (the sense strand with the Uhd conjugation at Position 4) prepared in Example 1, and RZ899008 was dosed with siRNA RZ899008 (the sense strand with the NM031 conjugation at Position 4) prepared in Example 1. Mices in each group were anesthetized with isoflurane. After anesthetization, lumbar region thereof was sprayed wet with 75% disinfecting alcohol. 10 μL (concentration […]) of siRNA drug containing PBS solvent was sucked with an insulin injection needle, the mouse lumbar region was pinched with the left-hand index finger and thumb, patella crest was propped against, and needle was held by the right hand. The needle was bent by forceps in advance, wherein the needle was first bent in the middle by 80° to 90°, then a front half part of the needle was bent in half, and the whole needle was bent in an are shape of about 60° to 90°. Mouse abdominal region was padded with an article with a thickness of about 2 cm. The needle was inserted from a joint of lumbar spines L5 and L6 of mice, and when inserting the needle, the hand was slightly inclined forwards to insert the needle. […] After completion of the injection, the needle was slowly withdrawn at uniform velocity. The administration dose to each mouse in RX899001 group, RZ899001 group and RZ899008 group was 800 μg, a total volume injected was 10 μL, and the PBS group was administered with the same volume of siRNA-free PBS solution. After the animals woke up, the animals were returned back to the animal feeding room and further fed. The day of administration was recorded as first day (D1), and the mice were sacrificed on ninth day (D9). Lumbar spine, thoracic spine and cerebellum were respectively taken and stored in the RNAlater.
RNA extraction: an appropriate amount of lumbar spine, thoracic spine and cerebellum samples were respectively taken out from the RNAlater, and smashed for 60 s in Tissuelyser type II full-automatic tissue homogenizer, and total RNAs of various tissue samples were extracted using the full-automatic nucleic acid extraction instrument and the nucleic acid extraction kit from Zhejiang Hanwei Science and Technology Co. Ltd. according to methods described in instructions. Reverse transcription reaction: 1 μg of the extracted total RNAs of various tissue samples were respectively taken, and configured into 20 μL of reverse transcription system according to a method described in kit instructions by using a reverse transcription kit (Reverse Transcription System, A3500) from Promega Corporation and selecting Oligo (dT)15 reverse transcription primers, and the reverse transcription reaction was completed. After the reaction was ended, 80 μL of RNase-Free water was added into the reverse transcription system to provide cDNA solution for Real-time PCR detection.
Real-time PCR detection: 20 μL of Real-time PCR reaction system per PCR detection well was configured according to a method described in kit instructions using SYBR™ Select Master Mix (Catalog number: 4472908) reagent from ABI company. Each detection system contained 5 μL of cDNA template obtained from the above reverse transcription reaction, 10 μL of SYBR™ Select Master Mix, 0.5 μL of 10 μM upstream primers, 0.5 μL of 10 μM downstream primers (see TABLE 5 for primer information), and 4 μL of RNase-Free H2O. The configured reaction system was subjected to Real-time PCR amplification on ABI StepOnePlus PCR instrument by a three-step method, wherein an amplification procedure was pre-denaturation at 95° C. for 10 min, then denaturation at 95° C. for 30 s, annealing at 60° C. for 30 s, and extension at 72° C. for 30 s; and processes of denaturation, annealing, and extension were repeated for 40 cycles. […]

[2] = test system: target gene SOD1; test: Test Example 3: inhibitory activity of lipid conjugated siRNA sequences on SOD1 by lateral ventricle administration to mice; type: in vivo, C57BL/6j mice; conditions: 200 μg per mouse, D5
Description: 6-8 Week-old C57BL/6j mice were randomly grouped by body weight. Mice in each group were administered with siRNA by lateral ventricle administration, with an administration dose per mouse depending on a specific test. Taking Bregma in mouse brain as point 0 (origin), coordinates of right ventricle were found using the cerebral stereotaxic apparatus and position was marked on surface of skull (position of lateral ventricle was AP (anteroposterior, bregma anterior and posterior): −0.58 mm, ML (mediolateral, left and right of middle raphe): −1.2 mm, DV (dorsoventral, up and down cerebral dura mater plane): −2.2 mm). A dental electric drill was used to drill in the skull above a position of interest, and then medicament was injected into the lateral ventricle by a micro-dosing pump, wherein a total injection volume was 5 μL, and injection duration was 10 min. Needle was retained for 5 min after completion of injection, and then slowly withdrawn. Afterwards, needle hole was sealed with biomedical glue, and then head skin was adhered. After animals woke up, the animals were returned back to animal house and further fed. PBS control group was administered with the same volume of siRNA-free PBS solution. The day of administration was recorded as 0 day (D0), and the mice were sacrificed at observation point after the administration. Different parts of brain region were respectively taken and stored in the RNAlater.
RNA extraction: the above tissue samples were taken out from the RNAlater, and smashed for 60 s in Tissuelyser type II full-automatic tissue homogenizer, and total RNAs of various tissue samples were extracted using the full-automatic nucleic acid extraction instrument and the nucleic acid extraction kit from Zhejiang Hanwei Science and Technology Co. Ltd. according to methods described in instructions.
Reverse transcription reaction: 1 μg of the extracted total RNAs of the tissue samples were taken, and configured into 20 μL of reverse transcription system according to a method described in kit instructions by using a reverse transcription kit (Reverse Transcription System, A3500) from Promega Corporation and selecting Oligo (dT)15 reverse transcription primers, and the reverse transcription reaction was completed. After the reaction was ended, 80 μL of RNase-Free water was added into the reverse transcription system to provide cDNA solution for Real-time PCR detection.
Real-time PCR detection: 20 μL of Real-time PCR reaction system per PCR detection well was configured according to a method described in kit instructions using SYBR™ Select Master Mix (Catalog number: 4472908) reagent from ABI company. Each detection system contained 5 μL of cDNA template obtained from the above reverse transcription reaction, 10 μL of SYBR™ Select Master Mix, 0.5 μL of 10 μM upstream primers, 0.5 μL of 10 μM downstream primers, and 4 μL of RNase-Free H2O. The configured reaction system was subjected to Real-time PCR amplification on ABI StepOnePlus PCR instrument by a three-step method, wherein an amplification procedure was pre-denaturation at 95° C. for 10 min, then denaturation at 95° C. for 30 s, annealing at 60° C. for 30 s, and extension at 72° C. for 30 s; and processes of denaturation, annealing, and extension were repeated for 40 cycles. Gene expression differences were calculated by the ΔΔCt method after completion of the procedure.
In the real-time fluorescence quantitative PCR method, relative quantitative calculation of remaining expression level and inhibition rate of gene mRNA of interest in various test groups was performed by the ΔΔCt method, and the calculation method is as follows: […]

Row | Substance | Cerebellum Mean value of inhibition rate % [1] | Lumbar spine Mean value of inhibition rate % [1] | Thoracic spine Mean value of inhibition rate % [1] | Cerebellum Mean value of inhibition rate % [2] | Cortex Mean value of inhibition rate % [2] | Hippocampus Mean value of inhibition rate % [2]
1 | RX899001: siRNA compound without vector conjugation, SOD1 sequence; sense SEQ ID NO: 1, antisense SEQ ID NO: 2 (sense mU*mU*mUmUmAmAfUfCfCmUmCmAmCmUmCmUmAmAmA; antisense mU*fU*mUmAmGfAmGmUmGmAmGmGmAfUmUfAmAmAmA*mU*mG) [reference compound] | 14.01% | 7.54% | 41.98% |  |  | 
2 | RZ899001: control siRNA, the sense strand with the Uhd conjugation at Position 4; SEQ ID NO: 4 / 2 (sense UUUNAAUCCUCACUCUAAA; antisense UUUAGAGUGAGGAUUAAAAUG; Uhd conjugate at sense position 4; modified_base 1..2 OTHER; 2'-methoxy and 5'-thiophosphate modified nucleotides; modified_base 3 OTHER; 2'-methoxy modified nucleotide; modified_base 4 OTHER; n is the synthetic nucleotide analog Uhd as described in the disclosure.; modified_base 5..6 OTHER; 2'-methoxy modified nucleotides; modified_base 7..9 OTHER; 2'-fluoro modified nucleotides; modified_base 10..19 OTHER; 2'-methoxy modified nuc; modified_base 1 OTHER; 2'-methoxy and 5'-thiophosphate modified nucleotide; modified_base 2 OTHER; 2'-fluoro and 5'-thiophosphate modified nucleotide; …) [reference compound] | 60.22% | 64.13% | 60.27% |  |  | 
3 | RZ899052: siRNA, the sense strand with the NM058 conjugation at Position 5; SEQ ID NO: 5 / 22 (sense UUUUNAUCCUCACUCUAAA; antisense UUUAGAGUGAGGAUUAAAAUG; NM058 conjugate at sense position 5; modified_base 1..2 OTHER; 2'-methoxy and 5'-thiophosphate modified nucleotides; modified_base 3..4 OTHER; 2'-methoxy modified nucleotides; modified_base 5 OTHER; n is the synthetic nucleotide analog NM058 as described in the disclosure(e.g., NM058-1 (1N-(9-[(2S,5R)-5-{[bis(4-methoxyphenyl)(phenyl)methoxy]methyl}-3,4-dihydroxytetrahydrofuran-2-yl]-9H-purin-6-yl)benzamide)).; modified_base 6 OTHER; modified_base 1 OTHER; 2'-methoxy and 5'-thiovinylphosphonate modified nucleotide; modified_base 2 OTHER; 2'-fluoro and 5'-thiophosphate modified nucleotide; …) |  |  |  | 53.02% | 62.93% | 87.35%
4 | RZ899053: siRNA, the sense strand with the NM058 conjugation at Position 6; SEQ ID NO: 6 / 22 (sense UUUUANUCCUCACUCUAAA; antisense UUUAGAGUGAGGAUUAAAAUG; NM058 conjugate at sense position 6; modified_base 1..2 OTHER; 2'-methoxy and 5'-thiophosphate modified nucleotides; modified_base 3..5 OTHER; 2'-methoxy modified nucleotides; modified_base 6 OTHER; n is the synthetic nucleotide analog NM058 as described in the disclosure(e.g., NM058-1 (1N-(9-[(2S,5R)-5-{[bis(4-methoxyphenyl)(phenyl)methoxy]methyl}-3,4-dihydroxytetrahydrofuran-2-yl]-9H-purin-6-yl)benzamide)).; modified_base 7..9 OTHE; modified_base 1 OTHER; 2'-methoxy and 5'-thiovinylphosphonate modified nucleotide; modified_base 2 OTHER; 2'-fluoro and 5'-thiophosphate modified nucleotide; …) |  |  |  | 42.55% | 55.87% | 74.13%

From US20260132165A1, “MODIFIED NUCLEOSIDE ANALOGUE AND USE THEREOF, AND NUCLEOSIDE ANALOGUE-CONTAINING DOUBLE-STRANDED OLIGONUCLEOTIDE AND USE THEREOF” (RIGERNA THERAPEUTICS (BEIJING) CO., LTD., priority 2023, published 2026)
